Where two headings read alike, the source gives them in different places.
Biological target: T1, Full-length glucokinase (beta cell isoform) (Homo sapiens, UniProt P35557)
T1 construct: Full-length glucokinase (beta cell isoform) was His-tagged at N-terminus; His tag (N); made in house; host or cells: E. coli BL21(DE3), pBCGK vector
T1 sequence (P35557 1-465): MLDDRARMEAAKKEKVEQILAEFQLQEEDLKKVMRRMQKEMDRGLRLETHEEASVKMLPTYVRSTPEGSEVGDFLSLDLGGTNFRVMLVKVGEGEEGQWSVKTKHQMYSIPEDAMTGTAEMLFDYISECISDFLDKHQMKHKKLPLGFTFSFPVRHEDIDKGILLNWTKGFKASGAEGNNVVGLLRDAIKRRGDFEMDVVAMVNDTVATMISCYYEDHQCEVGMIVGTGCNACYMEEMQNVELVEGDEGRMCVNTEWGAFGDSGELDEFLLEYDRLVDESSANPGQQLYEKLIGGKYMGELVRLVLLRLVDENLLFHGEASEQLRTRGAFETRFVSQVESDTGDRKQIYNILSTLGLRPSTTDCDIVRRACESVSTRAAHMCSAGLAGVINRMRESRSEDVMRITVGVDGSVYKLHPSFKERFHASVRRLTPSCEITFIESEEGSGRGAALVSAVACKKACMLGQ
Assay: Glucokinase activation assay (PK/LDH-coupled, NADH depletion at 340 nm)
Type: biochemical
Settings: for Emax: % max activation = (Va/Vo−1)×100 from fit, pH 7.1, read-out: Maximum Activation (%)
Description: Full-length glucokinase (beta cell isoform) was His-tagged at N-terminus and purified by a Ni column followed by size exclusion chromatography. A 320 mL column was packed in house using Superdex75 (Amersham Pharmacia, Carlsbad, Calif.) preparation grade resin. Glucose was obtained from Calbiochem (San Diego, Calif.) and other reagents were purchased from Sigma-Aldrich (St. Louis, Mo.).
All assays were performed in a Corning 384-well plate using Spectramax PLUS spectrophotometer (Molecular Devices, Sunnyvale, Calif.) at room temperature. The final assay volume was 40 ∥L. The buffer conditions used in this assay were as follows: 50 mM HEPES, 5 mM glucose, 2.5 mM ATP, 3.5 mM MgCl2, 0.7 mM NADH, 2 mM dithiothreitol, 1 unit/mL pyruvate kinase/lactate dehydrogenase (PK/LDH), 0.2 mM phosphoenolpyruvate, and 25 mM KCl. The buffer pH was 7.1. The test compound in dimethylsulfoxide solution was added to the buffer and mixed by a plate shaker for 7.5 minutes. The final concentration of dimethylsulfoxide introduced into the assay was 0.25%.
Glucokinase was added to the buffer mixture to initiate the reaction in the presence and absence of compound. The reaction was monitored by absorbance at 340 nm due to the depletion of NADH. The initial reaction velocity was measured by the slope of a linear time course of 0-300 seconds. The percentage of maximum activation was calculated by the following equation: % Maximum Activation=(Va/Vo−1)×100; wherein each of Va and Vo is defined as the initial reaction velocity in the presence and absence of the tested compound, respectively.
The glucokinase activities were measured as a function of compound concentrations.

[1] = 5 mM glucose, 2.5 mM ATP, pH 7.1, room temperature, single value or range where N>1, read-out: EC50
[2] = 5 mM glucose, single value or range where N>1

| EC50 [1] [µM] | Emax [2] [%] | SMILES | EC50 [µM] |
| --- | --- | --- | --- |
| > 50 |  | Cc1cnc(NC(=O)[C@H](CC2CCCC2)n2nnc(S(C)(=O)=O)n2)cn1 [Example 81, (S)-3-cyclopentyl-N-(5-methylpyrazin-2-yl)-2-(5-(methylsulfonyl)-2H-tetrazol-2-yl)propanamide] |  |
| 32 | 86 | Cc1ccc(NC(=O)[C@H](CC2CCCC2)n2nnc(S(C)(=O)=O)n2)nc1 [Example 80, (S)-3-cyclopentyl-N-(5-methylpyridin-2-yl)-2-(5-(methylsulfonyl)-2H-tetrazol-2-yl)propanamide] |  |
| 2.8 | 123 | Cc1ccc(NC(=O)[C@H](CC2CCCC2)n2cc(C(F)(F)F)c(C)n2)nc1 [Example 96, (S)-3-cyclopentyl-2-(3-methyl-4-(trifluoromethyl)-1H-pyrazol-1-yl)-N-(5-methylpyridin-2-yl)propanamide] |  |
| > 100 |  | Cc1ccc(NC(=O)[C@H](Cn2cccn2)n2cnc(C(F)(F)F)c2)nc1 [Example 83, (S)—N-(5-methylpyridin-2-yl)-3-(1H-pyrazol-1-yl)-2-(4-(trifluoromethyl)-1H-imidazol-1-yl)propenamide] |  |
| 5 | 115 | Cc1ccc(NC(=O)[C@H](CC2CCCO2)n2cnc(C(F)(F)F)c2)nc1 (mixture of isomers) [Example 82, (2S)—N-(5-methylpyridin-2-yl)-3-(tetrahydrofuran-2-yl)-2-(4-(trifluoromethyl)-1H-imidazol-1-yl)propanamide] |  |
| 4.2 to 4.4 | 109 to 114 | COc1ccc2nc(NC(=O)[C@H](CC3CCOCC3)n3cnc(C(F)(F)F)c3)sc2n1 [Example 78, (S)—N-(5-methoxythiazolo[5,4-b]pyridin-2-yl)-3-(tetrahydro-2H-pyran-4-yl)-2-(4-(trifluoromethyl)-1H-imidazol-1-yl)propanamide] |  |
| 0.7 | 150 | O=C(O)c1ccc(NC(=O)[C@H](CC2CCCC2)n2cnc(C(F)(F)F)n2)nc1 [Example 88, (S)-6-(3-cyclopentyl-2-(3-(trifluoromethyl)-1H-1,2,4-triazol-1-yl)propanamido)nicotinic acid] |  |
| 0.8 to 2 | 51 to 78 | Cc1ccc(NC(=O)[C@H](CC2CCOCC2)n2cnc(C(F)(F)F)c2)nc1 [Example 75, (S)—N-(5-methylpyridin-2-yl)-3-(tetrahydro-2H-pyran-4-yl)-2-(4-(trifluoromethyl)-1H-imidazol-1-yl)propanamide] |  |
| 0.4 to 1.2 | 158 to 168 | Cc1nc(C(F)(F)F)cn1[C@@H](CC1CCCC1)C(=O)Nc1ccc(C(=O)O)cn1 [Example 92, (S)-6-(3-cyclopentyl-2-(2-methyl-4-(trifluoromethyl)-1H-imidazol-1-yl)propanamido)nicotinic acid] |  |

More lines, now with the values behind:

| SMILES | EC50 [1] [µM] | Emax [2] [%] | EC50 [µM] |
| --- | --- | --- | --- |
| Cc1cnc(NC(=O)[C@H](CC2CCOCC2)n2cnc(C(F)(F)F)c2)cn1 [Example 74, (S)—N-(5-methylpyrazin-2-yl)-3-(tetrahydro-2H-pyran-4-yl)-2-(4-(trifluoromethyl)-1H-imidazol-1-yl)propanamide] | 8.7 | 115 |  |
| O=C(Nc1cnc([C@H](O)CO)cn1)[C@H](CC1CCCC1)n1cnc(C(F)(F)F)c1 [Example 50, (S)-3-cyclopentyl-N-(5-((S)-1,2-dihydroxyethyl)pyrazin-2-yl)-2-(4-(trifluoromethyl)-1H-imidazol-1-yl)propanamide] | 2.6 to 4.2 | 121 to 140 |  |
| CCOP(=O)(Cc1ccc(NC(=O)[C@H](CC2CCCC2)n2cnc(C(F)(F)F)c2)nc1)OCC [Example 58, (S)-diethyl(6-(3-cyclopentyl-2-(4-(trifluoromethyl)-1H-imidazol-1-yl)propanamido)pyridin-3-yl)methylphosphonate] |  | 129 | 3.4 |
| CC(C)S(=O)(=O)c1cnn([C@@H](CC2CCCC2)C(=O)Nc2ccn(Cc3ccccc3)n2)c1 [Example 19, (S)—N-(1-benzyl-1H-pyrazol-3-yl)-3-cyclopentyl-2-(4-(isopropylsulfonyl)-1H-pyrazol-1-yl)propanamide] | 1.3 to 1.7 | 33 to 39 |  |
| CC(C)S(=O)(=O)c1cnn([C@@H](CC2CCCC2)C(=O)Nc2ccc3ccccc3n2)c1 [Example 17, (S)-3-cyclopentyl-2-(4-(isopropylsulfonyl)-1H-pyrazol-1-yl)-N-(quinolin-2-yl)propanamide] | 8.2 | 23 |  |
| Cn1ccc(NC(=O)[C@H](CC2CCCC2)n2cnc(C(F)(F)F)c2)n1 [Example 43, (S)-3-cyclopentyl-N-(1-methyl-1H-pyrazol-3-yl)-2-(4-(trifluoromethyl)-1H-imidazol-1-yl)propanamide] | 2.9 to 3.5 | 147 to 166 |  |
| NC(=O)c1ccc(NC(=O)[C@H](CC2CCCC2)n2cnc(C(F)(F)F)c2)nc1 [Example 52, 6-[(S)-3-cyclopentyl-2-(4-trifluoromethyl-1H-imidazol-1-yl)-propionylamino]-nicotinamide] | 0.4 | 110 |  |
| Cc1ccc(NC(=O)[C@H](CC2CCCC2)n2cnc(S(C)(=O)=O)c2)nc1 [Example 35, (S)-3-cyclopentyl-N-(5-methylpyridin-2-yl)-2-(4-(methylsulfonyl)-1H-imidazol-1-yl)propanamide] | 0.8 | 100 |  |
| CCS(=O)(=O)c1cnn([C@@H](CC2CCCC2)C(=O)Nc2cnc(C)cn2)c1 [Example 22, (S)-3-cyclopentyl-2-(4-(ethylsulfonyl)-1H-pyrazol-1-yl)-N-(5-methylpyrazin-2-yl)propanamide] | 25 | 144 |  |
| CS(=O)(=O)c1cnn([C@@H](CC2CCCC2)C(=O)Nc2ccc(C(=O)O)cn2)c1 [Example 24, (S)-6-(3-cyclopentyl-2-(4-(methylsulfonyl)-1H-pyrazol-1-yl)propanamido)nicotinic acid] | 7 | 145 |  |
| Cn1ccc(NC(=O)[C@H](CC2CCCC2)n2cnc(S(C)(=O)=O)n2)n1 [Example 26, (S)-3-cyclopentyl-N-(1-methyl-1H-pyrazol-3-yl)-2-(3-(methylsulfonyl)-1H-1,2,4-triazol-1-yl)propanamide] | 33 | 89 |  |
| Cn1ccc(NC(=O)[C@H](CC2CCCC2)n2ccc(C(F)(F)F)n2)n1 [Example 68, (S)-3-cyclopentyl-N-(1-methyl-1H-pyrazol-3-yl)-2-(3-(trifluoromethyl)-1H-pyrazol-1-yl)propanamide] | > 100 |  |  |
| CC(C)S(=O)(=O)c1cnn([C@@H](CC2CCCC2)C(=O)Nc2ccn(C)n2)c1 [Example 7, (S)-3-cyclopentyl-2-(4-(isopropylsulfonyl)-1H-pyrazol-1-yl)-N-(1-methyl-1H-pyrazol-3-yl)propanamide] | 3.5 to 6 | 39 to 40 |  |
| Cc1cnc(NC(=O)[C@H](CC2CCCC2)n2cc(S(=O)(=O)C(C)C)cn2)cn1 [Example 6, (S)-3-cyclopentyl-2-(4-(isopropylsulfonyl)-1H-pyrazol-1-yl)-N-(5-methylpyrazin-2-yl)propanamide] | 4.8 to 5.6 | 70 to 76 |  |
| CS(=O)(=O)c1cnn([C@@H](CC2CCCC2)C(=O)Nc2ccncn2)c1 [Example 13, (S)-3-cyclopentyl-2-(4-(methylsulfonyl)-1H-pyrazol-1-yl)-N-(pyrimidin-4-yl)propanamide] | 32 | 100 |  |
| CC(C)(O)Cn1ccc(NC(=O)[C@H](CC2CCCC2)n2cnc(C(F)(F)F)c2)n1 [Example 56, (S)-3-cyclopentyl-N-(1-(2-hydroxy-2-methylpropyl)-1H-pyrazol-3-yl)-2-(4-(trifluoromethyl)-1H-imidazol-1-yl)propanamide] | 5.2 | 167 |  |
| CCOP(=O)(OCC)c1ccc(NC(=O)[C@H](CC2CCCC2)n2cnc(C(F)(F)F)c2)nc1 [Example 59, (S)-diethyl 6-(3-cyclopentyl-2-(4-(trifluoromethyl)-1H-imidazol-1-yl)propanamido)pyridin-3-ylphosphonate] |  | 81 | 14 |
| CS(=O)(=O)c1cnn([C@@H](CC2CCCC2)C(=O)Nc2ccn(Cc3ccccc3)n2)c1 [Example 12, (S)—N-(1-benzyl-1H-pyrazol-3-yl)-3-cyclopentyl-2-(4-(methylsulfonyl)-1H-pyrazol-1-yl)propanamide] | > 100 |  |  |
